The values below come from patent US20260223859A1, “PLANT DISEASE CONTROL COMPOSITION COMPRISING CULTURE BROTH OF STREPTOMYCES SP. JCK-6141 STRAIN OR EXTRACT OF CULTURE BROTH OF STRAIN, PREPARATION METHOD THEREFOR AND PLANT DISEASE CONTROL METHOD” (priority 2020, published 2026).

≈ marks a conversion by molar mass, not a printed value.

In assay [1] the test system is Colletotrichum horii. Nature of the assay: microbe, parasite or virus in culture. Conditions: 24 hours at 25° C., read-out: MIC, F61. Type of assay: cell-based.
Assay [2] deals with Valsa ceratosperma. In words: microbe, parasite or virus in culture. Type of assay: cell-based. Conditions: Cytospora ceratosperma; 24 hours at 25° C.; read-out: MIC, F61.
Assay [3] concerns Sclerotinia homoeocarpa. Nature of the assay: microbe, parasite or virus in culture. In kind it is cell-based. Conditions: Clarireedia homoeocarpa; 24 hours at 25° C.; read-out: MIC, F61.
For assay [4], the system named is Phytophthora cambivora. In words: microbe, parasite or virus in culture. In kind it is cell-based. Conditions: 24 hours at 25° C., read-out: MIC, F61.
Assay [5] has as its system Gaeumannomyces graminis. In words: microbe, parasite or virus in culture. In kind it is cell-based. Conditions: 24 hours at 25° C., read-out: MIC, F61.
The subject of assay [6] is Phytophthora cinnamomi. In words: microbe, parasite or virus in culture. Type of assay: cell-based. Conditions: 24 hours at 25° C., read-out: MIC, F61.
The subject of assay [7] is Phythium ultimum. In words: organism not typed. Type of assay: cell-based. The following applies: 24 hours at 25° C.; read-out: MIC, F61.
Assay [8] has as its system Fusarium oxysporum f. sp. raphani. Nature of the assay: microbe, parasite or virus in culture. Type of assay: cell-based. Conditions: 24 hours at 25° C., read-out: MIC, F61.
The test system of assay [9] is Magnapothe oryzae. In words: organism not typed. In kind it is cell-based. The following applies: 24 h, read-out: MIC, F61 (μg/ml).
In assay [10] the test system is Magnaporthiopsis poae. In words: microbe, parasite or virus in culture. Type of assay: cell-based. Conditions: 24 hours at 25° C., read-out: MIC, F61.
Assay [11] concerns Fusarium graminearum. Nature of the assay: microbe, parasite or virus in culture. Type of assay: cell-based. The following applies: 24 h, read-out: MIC, F61 (μg/ml).
Assay [12] relates to Botryoshpaeria dothidea. In words: organism not typed. Type of assay: cell-based. The following applies: 24 hours at 25° C.; read-out: MIC, F61.
For assay [13], the system named is Fusarium oxysporum f. sp. cucumerinum. Nature of the assay: microbe, parasite or virus in culture. Type of assay: cell-based. The following applies: 24 hours at 25° C., read-out: MIC, F61.
Assay [14] deals with Endothia parasitica. Nature of the assay: microbe, parasite or virus in culture. The following applies: Cryphonectria parasitica; 24 hours at 25° C.; read-out: MIC, F61. In kind it is cell-based.
For assay [15], the system named is Botryritis cinerea. Nature of the assay: organism not typed. Type of assay: cell-based. Conditions: 24 hours at 25° C.; read-out: MIC, F61.
The test system of assay [16] is Curvularia lunata. Nature of the assay: microbe, parasite or virus in culture. Type of assay: cell-based. The following applies: 24 hours at 25° C., read-out: MIC, F61.
Assay [17] has as its system Phytophthora cactorum. In words: microbe, parasite or virus in culture. In kind it is cell-based. Conditions: 24 hours at 25° C., read-out: MIC, F61.
Assay [18] relates to Rhizoctonia solani. Nature of the assay: microbe, parasite or virus in culture. Type of assay: cell-based. The following applies: 24 hours at 25° C., read-out: MIC, F61.
Assay [19] concerns Puccinia recondite. Nature of the assay: In vivo control of wheat leaf rust. The following applies: wheat cultivar Eunpa, 7 days after inoculation.
Assay [20] concerns Rhizoctonia solani. Nature of the assay: In vivo control of rice sheath blight (RSB). Conditions: rice cultivar Nakdong. The protocol:
The control efficacy of Streptomyces sp. JCK-6141 strain against rice sheath blight (RSB) was examined in vivo. As an experimental plant, the rice cultivar Nakdong (Oryza sativa L.) was used.
One day before pathogen inoculation, the Nakdong rice plants were treated by soil drenching with 10 ml of each of the 3-fold and 9-fold dilutions of the Streptomyces sp. JCK-6141 strain culture in distilled water. After putting an appropriate amount of Nakdong rice bran treated with the dilutions was put into a 1-L culture bottle and sterilized, followed by evenly inoculating finely ground mycelial mass of cultured Rhizoctonia solani into the pots where the rice plants had been grown. After inoculation, incubation was carried out for 3 days in a humid chamber (25° C.) and then for 4 days in an incubator with a relative humidity of 80%. Examination was made of the onset of the disease. As a control, the synthetic chemical fungicide Flutolanil was used at 20 μg/ml or 50 μg/ml concentration.

Regarding `CCCCCC[C@@]1(OC(=O)CCC(=O)O)CC[C@]2(CC[C@H](C)[C@@H](C/C=C(C)/C=C/[C@H](O)[C@@H](C)/C=C/C(=O)O)O2)O[C@H]1/C=C/C(C)=C/C(=O)O` [F61, reveromycin E], the MIC amounted to 0.049 µg/mL (≈ 0.0711 µM) in assay [1]; 0.78 µg/mL (≈ 1.13 µM) in assay [2]; 0.195 µg/mL (≈ 0.283 µM) in assay [3]; 0.195 µg/mL (≈ 0.283 µM) in assay [4]; 3.12 µg/mL (≈ 4.54 µM) in [5]; 0.39 µg/mL (≈ 0.566 µM) in assay [6]. Besides, the MIC in assay [7] turned out to be 1.56 µg/mL (≈ 2.26 µM); in [8] it was 1.56 µg/mL (≈ 2.26 µM); in assay [9] it was 0.78 µg/mL (≈ 1.13 µM); in assay [10], 0.0244 µg/mL (≈ 0.0354 µM); in assay [11], 0.195 µg/mL (≈ 0.283 µM); in assay [12], 0.098 µg/mL (≈ 0.142 µM). Also, the MIC in [13] was found to be 1.56 µg/mL (≈ 2.26 µM); in assay [14] it was 1.56 µg/mL (≈ 2.26 µM); in [15], 1.56 µg/mL (≈ 2.26 µM); in assay [16], 0.78 µg/mL (≈ 1.13 µM); in [17], 0.195 µg/mL (≈ 0.283 µM); in [18], 1.56 µg/mL (≈ 2.26 µM).
For `CC(C)Oc1cccc(NC(=O)c2ccccc2C(F)(F)F)c1` [Flutolanil], the “Wheat leaf rust control (%)” value in assay [19] (20 μg/ml) amounted to 73.3 ± 6.7 b %; in [19] (50 μg/ml) it was 100.0 ± 0.0 a %. The “RSB Control (%)” value in [20] (20 μg/ml) and in assay [20] (50 μg/ml) was 100.0 ± 0.0 a % each time.
